A short description of data set [1]: Laser diffraction particle size analysis. The format is physicochemical. To be noted: laser sizing, n = 3. The protocol: The laser diffraction particle size analysis was performed on raw Fas and all co-SD samples.
The nature of data set [2]: Residual water content by Karl Fischer titration (KFT). It counts as physicochemical. From the text:
Using conditions similar to those previously reported (Li et al., 2014, supra; […], et al., European journal of pharmaceutical sciences: official journal of the European Federation for Pharmaceutical Sciences. Jul. 16, 2013; 49(4):699-711; […], et al., International journal of nanomedicine. 2013; 8:275-293), the residual water content of all SD powders were quantified analytically by Karl Fischer titration (KFT) coulometrically using a TitroLine 7500 trace titrator (SI Analytics, Germany). Approximately 2-10 mg of powder was added to the titration cell containing Hydranal® Coulomat AD reagent. The residual water content was measured at the end of titration.

Consider one compound from US11878023B2, “Compositions and methods for delivering pharmaceutical agents” (Arizona Board of Regents on Behalf of the University of …, priority 2017, dated 2024).

SMILES strings stand for the structures. Counter-ions that a name gives are not always drawn.

Consider `O=S(=O)(c1cccc2cnccc12)N1CCCNCC1` [Raw Fas, Fasudil monohydrochloride hemihydrate salt], for which, in data set [1], the DV90 is 7.42 ± 0.19 μm, the Dv10 stood at 3.67 ± 0.32 μm, the Dv50 result is given as “about 5 μm” and the “Span Value” was determined as 0.765 ± 0.15. The compound further registered a Dv50 in data set [1] (listed as Raw FH) of 4.96 ± 3.5 μm. Further, the “Residual Water content” value in data set [2] (n = 3) is 2.97 ± 0.06 % w/w. Besides, in data set [2] (n = 3, listed as raw Fas), the “Residual Water content” value came out at 2.97 % w/w.
